Test results taken from patent US20190177279A1, “CARBOXYLIC ACID AROMATIC 1,2-CYCLOPROPYLAMIDES” (Bayer Pharma Aktiengesellschaft, priority 2017, published 2019).
pIC50: −log10 of the molar value.

How the values were obtained:
IL-6 secretion = test: Bradykinin B1 receptor agonist-induced secretion of IL-6 in human IMR-90 cells; assay type: cell-based; conditions: 0.1 μM Lys-[Des-Arg9]Bradykinin and 0.1 μM Sar-[D-Phe8]-des-Arg9-Bradykinin, 5 hours
Description: (§1) Inhibitory Activity on Bradykinin B1 Receptor Agonist-Induced Secretion of IL-6 and IL-8 in Human IMR-90 Cells
(§2) The effect of the compound examples on secretion of the cytokine IL-6 and IL-8 was investigated in the human foetal lung fibroblast IMR-90 cell line. Here the induction of the cytokine secretion was induced by the Bradykinin B1 receptor agonists Lys-[Des-Arg9]Bradykinin (CAS 71800-36-7, Tocris Bioscience) and Sar-[D-Phe8]-des-Arg9-Bradykinin (CAS 126959-88-4, Tocris Bioscience) leading to the activation of the Bradykinin B1-driven signalling pathway. […]
(§3) IMR-90 cells were cultured in Eagle's Minimum Essential Medium (EMEM) containing 2 mM L-glutamine, 1 g/L glucose, 1.5 g/L NaHCO3, 1 mM sodium pyruvate and non-essential amino acids (ATCC, 30-2003™) supplemented with 10% FBS (Biochrom, 50615) and 50 U/mL Penicillin, 50 μg/mL Streptomycin (PAA, P11-010). […] The compound examples were serially diluted in 100% DMSO and evaluated at 8 different concentrations within the range of 3 nM and 10 μM and a final DMSO concentration of 0.4%. […] The amount of IL-6 and IL-8 in the supernatant was determined using the Human ProInflammatory Panel II (4-Plex) (MSD, K15025B) according to manufacturer's instruction. […] The cell viability was measured using the CellTiter-Glo Luminescent Assay (Promega, G7571) following the manufacturers protocol. […]

IL-8 secretion = test: Bradykinin B1 receptor agonist-induced secretion of IL-8 in human IMR-90 cells; assay type: cell-based; conditions: 0.1 μM Lys-[Des-Arg9]Bradykinin and 0.1 μM Sar-[D-Phe8]-des-Arg9-Bradykinin, 5 hours
Description: as §1, §2, §3

`O=C(O)c1cc(NC(=O)C2CC2c2ccc(Cl)cc2)cc(F)c1-c1cnn(C2CCC2)c1` (racemic) [Example 2, 5-({[2-(4-chlorophenyl)cyclopropyl]carbonyl}amino)-2-(1-cyclobutyl-1H-pyrazol-4-yl)-3-fluorobenzoic acid] was tested. Which pIC50 (IL-6 secretion) did it give?
Its pIC50 is 6.49.

What about the pIC50 (IL-8 secretion) of the same molecule?
Its pIC50 is 6.73.
